According to EP4685228A1, “MEDIUM COMPOSITION FOR PROMOTING MUSCLE CELL DIFFERENTIATION COMPRISING QUERCETIN AS ACTIVE INGREDIENT” (Industry Academic Cooperation Foundation of Yeungnam …, priority 2023, dated 2024):

How the values were obtained:
Type in all cases: cell-based
chicken muscle stem cell [1] = assay: muscle cell proliferation (microscope, MTS analysis); conditions: various concentrations, cultured for 4 days, FIGS. 3 and 4
Experimental: (§1) Mouse myoblast cell line (C2C12) used was purchased from American Type Culture Collection (ATCC). Muscle stem cells were collected from leg muscles of cows, pigs, and chickens, minced, and reacted with 1% Pronase enzyme at 37°C for 2 hours, followed by centrifugation at 1,000 g for 3 minutes. After centrifugation, the supernatant was removed, and the tissue was suspended in Dulbecco's Modified Eagle's Medium (DMEM) supplemented with 1% penicillin/streptomycin (hereinafter referred to as P/S) and 10% fetal bovine serum (hereinafter referred to as FBS), and then the tissue and cells were separated through a 100 µm filter. The separated cells were centrifuged at 1,000 g for 5 minutes, the supernatant was removed, and the cells were suspended in Ham's F10 growth medium containing 1% P/S, 20% FBS, and 5 ng/mL fibroblast growth factor 2 (FGF2), after which cells were transferred to a cell culture dish and cultured at 37°C in the presence of 5% CO2.
(§2) To identify the effect of quercetin on muscle stem cell proliferation, myoblasts and muscle stem cells being cultured in proliferation medium (Ham's F10 containing 1% P/S, 20% FBS, and 5 ng/mL FGF2) were treated with various concentrations of quercetin and cultured for 4 days. To compare proliferation rates, MTS analysis was performed. Myoblasts and muscle stem cells were cultured in a proliferation medium for 4 days, and after removing all of the medium, a culture medium in which proliferation medium and MTS reagent are mixed in a ratio of 8:2 was treated to the cells, followed by a reaction for 1 hour. The reacted culture medium was transferred to a 96-well microplate in a volume of 100 µL, and the absorbance of the culture medium contained in each well was measured at 490 nm using a microplate.
(§3) According to the Experimental Example 2, in order to identify the effect of quercetin on muscle cell proliferation, quercetin was added at various concentrations during the proliferation culture of myoblasts and muscle stem cells, and after culturing for 4 days, observation was made under a microscope, followed by MTS analysis for comparison of the proliferation rate.

[2] = system: Mouse myoblast cell line (C2C12); assay: as above; conditions: various concentrations, cultured for 4 days, FIGS. 3 and 4
Experimental: as §1, §2, §3

bovine muscle stem cell [3] = assay: as above; conditions: various concentrations, cultured for 4 days, FIGS. 3 and 4
Experimental: as §1, §2, §3

porcine muscle stem cell [4] = assay: as above; conditions: various concentrations, cultured for 4 days, FIGS. 3 and 4
Experimental: as §1, §2, §3

[5] = system: Mouse myoblast cell line (C2C12); assay: muscle cell differentiation (microscope, creatine kinase activity)
Experimental: To determine the effect of quercetin on muscle stem cell differentiation, myoblasts and muscle stem cells being differentiated were treated with different concentrations of quercetin in differentiation medium (Ham's F10 containing 1% P/S, 20% FBS, and 5 ng/mL FGF2) and cultured for 4 days. To compare differentiation rates, creatine kinase activity was analyzed. Myoblasts and muscle stem cells were cultured in differentiation medium for 4 days, then all media were removed, followed by washing with phosphate buffer saline (PBS), 200 µL of new saline was added, and the cells were scraped and collected. Afterwards, the cells were disrupted through sonication, and the supernatant was separated through centrifugation. For analysis of creatine kinase activity, a mixture (100 µL of buffer, 10 µL of substrate, and 1 µL of enzyme) was prepared, and 100 µL of the mixture was treated to 10 µL of the supernatant. Afterwards, the absorbance at 340 nm was measured at 20 and 25 minutes after the start of the reaction using a microplate reader, and the value of creatine kinase activity (U/L) was calculated using the following Equation 1. [formula] […]

[6] = system: muscle differentiation-related factors (MYOD, MYOG, and MYH); assay: gene and protein expression of muscle differentiation-related factors (real-time PCR, Western blot); conditions: 10 nM quercetin, FIG. 7
Experimental: 1 mL of TRIzol (TRIzol™) reagent was added to the cultured cells, and the cells were crushed. 200 µLof chloroform was added to the crushed cells, and centrifugation was performed at 12,000 rpm for 10 minutes. After centrifugation, the upper clear water layer was transferred to a new tube, followed by addition of 500 µLof isopropanol. Afterwards, the mixture was mixed sufficiently and centrifuged at 12,000 rpm for 10 minutes. Thereafter, all supernatants except the RNA pellet were removed, and 1 mL of 70% ethanol was added, followed by washing. Afterwards, all ethanol was removed, and the RNA pellet was dissolved in distilled water containing diethylpyrocarbonate (hereinafter referred to as DEPC). The obtained RNA was quantified using a spectrophotometer, and then 2 µg of total RNA was reacted with reverse transcriptase to synthesize cDNA.
To identify an effect of quercetin on gene expression of muscle differentiation-related factors [myoblast determination protein 1 (hereinafter referred to as MYOD), myogenin (hereinafter referred to as MYOG), and myosin heavy chain (hereinafter referred to as MYH)], real-time PCR was performed. Synthesized cDNA and primers designed using NCBI's primer blast tool; and reagents containing SYBR green fluorescent substance were mixed. Real-time PCR was analyzed via the 7500 real-time PCR from Applied Biosystems.
To determine the effect of quercetin on the protein expression of muscle differentiation-related factors (MYOD, MYOG, and MYH), Western blot was performed. All media of cells being cultured were removed and washed with saline solution. A mixture containing RIPA buffer and 1% protease inhibitor was added to the cells and scraped. After centrifugation at 12,000 rpm for 10 minutes, the supernatant was recovered and quantified using a spectrophotometer. 60 µg of the extracted protein was electrophoresed on a 10% acrylamide gel and transferred to a polyvinylidene fluoride (PVDF) membrane (Milipore). Blocking was performed for 1 hour in tris-buffered saline (TBS) buffer containing 3% skim milk and 1% surfactant (tween-20), and the primary antibody was added. After reacting for 16 hours at 4°C, washing was performed three times for 10 minutes in TBS buffer containing 1% surfactant (Tween-20), followed by a reaction with the secondary antibody for 1 hour at room temperature. Afterwards, washing was performed three times for 10 minutes in TBS buffer containing 1% surfactant (tween-20), followed by development after adding Super Signal West Pico Chemiluminescent Substrate.
According to the above Experimental Example 4, to identify the effect of quercetin on the expression of factors related to muscle differentiation, 10 nM quercetin was added to the process of differentiating myoblasts and muscle stem cells, and gene and protein expression of the factors was analyzed.

chicken muscle stem cell [7] = assay: muscle cell differentiation (microscope, creatine kinase activity); conditions: 4 days
Experimental: as §1
(§4) To determine the effect of quercetin on muscle stem cell differentiation, myoblasts and muscle stem cells being differentiated were treated with different concentrations of quercetin in differentiation medium ([…]) and cultured for 4 days. To compare differentiation rates, creatine kinase activity was analyzed. Myoblasts and muscle stem cells were cultured in differentiation medium for 4 days, then all media were removed, followed by washing with phosphate buffer saline (PBS), 200 µL of new saline was added, and the cells were scraped and collected. Afterwards, the cells were disrupted through sonication, and the supernatant was separated through centrifugation. For analysis of creatine kinase activity, a mixture (100 µL of buffer, 10 µL of substrate, and 1 µL of enzyme) was prepared, and 100 µL of the mixture was treated to 10 µL of the supernatant. Afterwards, the absorbance at 340 nm was measured at 20 and 25 minutes after the start of the reaction using a microplate reader, and the value of creatine kinase activity (U/L) was calculated using the following Equation 1. [formula]
(§5) According to the Experimental Example 2, in order to identify the effect of quercetin on muscle cell differentiation, quercetin was added at various concentrations during differentiation culture of myoblasts and muscle stem cells, and after culturing for 4 days, observation was made under a microscope, followed by analysis of creatine kinase activity to compare the differentiation rate.

bovine muscle stem cell [8] = assay: as above; conditions: 4 days
Experimental: as §1, §4, §5

porcine muscle stem cell [9] = assay: as above; conditions: 4 days
Experimental: as §1, §4, §5

[10] = 10 nM and 100 nM treatment groups, FIG. 5

O=c1c(O)c(-c2ccc(O)c(O)c2)oc2cc(O)cc(O)c12 [quercetin]
increased: diameter of myotubes ([5]; mouse myoblast, 10 nM and 100 nM treatment groups, 4 days, FIG. 5) | diameter of myotubes (chicken muscle stem cell [7]; [10]) | diameter of myotubes (bovine muscle stem cell [8]; [10]) | diameter of myotubes (porcine muscle stem cell [9]; [10])
no significant change: proliferation rate (chicken muscle stem cell [1]) | proliferation rate [2] | proliferation rate (bovine muscle stem cell [3]) | proliferation rate (porcine muscle stem cell [4])
17%: creatine kinase activity increase compared to the control group (Con) ([5]; mouse myoblasts, differentiation medium, quercetin 10 nM, antioxidant supplement diluted 1,000-fold, FIG. 8B)
significantly increased: creatine kinase activity ([5]; mouse myoblast, 10 nM and 100 nM, 4 days, FIG. 6) | MYH expression ([6]; bovine muscle stem cells) | MYOD expression ([6]; bovine muscle stem cells) | MYOG expression ([6]; bovine muscle stem cells) | MYH expression ([6]; chicken muscle stem cells) | MYOG expression ([6]; chicken muscle stem cells) | MYH expression ([6]; mouse myoblasts) | MYOD expression ([6]; mouse myoblasts) | MYOG expression ([6]; mouse myoblasts) | MYH expression ([6]; porcine muscle stem cells) | MYOD expression ([6]; porcine muscle stem cells) | MYOG expression ([6]; porcine muscle stem cells) | creatine kinase activity (chicken muscle stem cell [7]; 10 nM and 100 nM, FIG. 6) | creatine kinase activity (bovine muscle stem cell [8]; 10 nM and 100 nM, FIG. 6) | creatine kinase activity (porcine muscle stem cell [9]; 10 nM and 100 nM, FIG. 6)
